Results: PubChem BioAssay (NCI)
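How tested: cells in 96-well plates exposed to compound for 48 hours at five concentrations. At the GI50, growth is halved. TGI: total growth inhibition.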

What was measured:
Experiment in all cases: growth of human tumour cells (NCI), 48 h
[1] = test system: A498 renal
[2] = test system: SK-MEL-5 melanoma
[3] = test system: K-562 leukemia
[4] = test system: SNB-19 CNS
[5] = test system: MDA-MB-435
[6] = test system: SF-295 CNS
[7] = test system: HOP-92 NSCLC
[8] = test system: UACC-62 melanoma
[9] = test system: OVCAR-4 ovarian
[10] = test system: HCT-15 colon

Row | SMILES | GI50 [1] | TGI [1] | GI50 [2] | TGI [2] | GI50 [3] | TGI [3] | GI50 [4] | TGI [4] | GI50 [5] | TGI [5] | GI50 [6] | TGI [6] | GI50 [7] | TGI [7] | GI50 [8] | TGI [8] | GI50 [9] | TGI [9] | GI50 [10] | TGI [10]
1 | Cc1cc2c(C(C)C)c(O)c(O)c(C=O)c2c(O)c1-c1c(C)cc2c(C(C)C)c(O)c(O)c(C=O)c2c1O (tested in a mixture with another compound) | 1.29 µM | 2.92 µM | 1.54 µM | 2.95 µM | 0.425 µM | 20.7 µM | 0.686 µM | 9.47 µM | 1.86 µM | 5.19 µM | 0.325 µM | 1.71 µM | 0.223 µM | 0.909 µM | 1.87 µM | 4.23 µM | 1.45 µM | 9.99 µM | 0.79 µM | 2.99 µM
2 | Brc1ccc(Br)nn1 | 3.42 µM | 17.5 µM | 1.49 µM | 3.85 µM | 2.17 µM | 10.3 µM | 3.77 µM | 15.5 µM | 1.75 µM | 3.55 µM | 5.38 µM | 18.6 µM | 1.8 µM | 3.6 µM | 1.88 µM | 6.24 µM | 1.29 µM | 2.77 µM | 1.74 µM | 3.66 µM
3 | COC(=O)Nc1nc2ccc(Sc3ccccc3)cc2[nH]1 | 0.14 µM | 6.4 µM | 0.146 µM | 4.08 µM | 0.0482 µM |  | 0.267 µM | 28.9 µM | 0.0307 µM | 0.111 µM | 0.152 µM | 19.9 µM | 0.177 µM | 7 µM | 0.405 µM | 23.9 µM | 0.856 µM | 6.34 µM | 0.0825 µM | 23 µM
4 | ClC1=C(Cl)C(Cl)=C(Cl)C1=Cc1ccc(Cl)cc1 | 1.6 µM | 3.17 µM | 1.17 µM | 2.41 µM | 0.388 µM | 4.1 µM | 1.07 µM | 2.42 µM | 0.507 µM | 2.95 µM | 2.27 µM | 8.85 µM | 1.53 µM | 3.84 µM | 0.363 µM | 1.65 µM | 0.818 µM | 2.34 µM | 0.536 µM | 2.56 µM
5 | O=C1c2ccccc2C(=O)c2c(NC(=O)c3ccc4c5c(ncnc35)-c3ccccc3C4=O)cccc21 |  | > 100 µM |  | > 100 µM |  | > 100 µM |  | > 100 µM |  | > 100 µM |  | 64 µM |  | > 100 µM |  | > 100 µM |  | > 100 µM |  | > 100 µM
6 | CC(=O)OCC(=O)C1(O)C(C)CC2C3C=C(C)C4=Cc5c(cnn5-c5ccccc5)CC4(C)C3C(O)CC21C (centres undefined) | 1.4 µM | 3.94 µM | 1.45 µM | 2.87 µM | 0.5 µM | > 100 µM | 2.31 µM | 11.9 µM | 2.33 µM | 7.33 µM | 0.624 µM | 2.63 µM | 0.0261 µM | 7.39 µM | 1.77 µM | 3.8 µM | 2.29 µM | 20 µM | 1.15 µM | 2.54 µM
7 | CC(=O)/C=C/C1=C(c2ccsc2)c2ccccc2CC1 | 24.7 µM | 69.7 µM | 16.3 µM | 31.6 µM | 21.3 µM | 44 µM | 42.5 µM | > 100 µM | 17.9 µM | 33.8 µM | 19.3 µM | 49.7 µM | 17.2 µM | 50.6 µM | 16.2 µM | 37.1 µM | > 100 µM | > 100 µM | 18.6 µM | 35.3 µM
8 | C=C=[CH][Sn]([c]1ccccc1)([c]1ccccc1)[c]1ccccc1 | 1.24 µM | 2.56 µM | 1.56 µM | 3.09 µM | 0.722 µM | 3.3 µM | 1.81 µM | 3.34 µM | 1.3 µM | 2.68 µM | 1.96 µM | 3.89 µM | 0.593 µM | 2.03 µM | 1.65 µM | 3.28 µM | 1.47 µM | 3.38 µM | 1.4 µM | 2.9 µM
9 | CSc1ccc(C2=NN(C(=O)c3ccc(N)cc3)C(c3ccc(F)cc3)C2)cc1 (centres undefined) | 12.9 µM | 27.3 µM | 5.66 µM | 18.8 µM | 3.69 µM | 11.2 µM | 8.94 µM | 22.3 µM | 6.55 µM | 23.6 µM | 13.2 µM | 27.9 µM | 2.36 µM | 17.7 µM | 10.1 µM | 22.5 µM | 15 µM | 31.9 µM | 3.28 µM | 14.4 µM
10 | O=P1(O)c2ccccc2CS(=O)(=O)Cc2ccccc21 |  | > 100 µM |  | > 100 µM |  | > 100 µM |  | > 100 µM |  | > 100 µM |  | > 100 µM |  | > 100 µM |  | > 100 µM |  | > 100 µM |  | > 100 µM
11 | OC(c1ccccc1)c1c(-c2ccccc2)oc(-c2ccccc2)c1C(O)c1ccccc1 (centres undefined) |  | 30.4 µM |  | 23.6 µM |  | 13.9 µM |  | 28.6 µM |  | 21.1 µM |  | 29.3 µM |  | 26.5 µM |  | 25.6 µM |  | 7.99 µM |  | 36.8 µM
12 | CNCCOc1nc2c3cnccc3cc(-c3cc(OC)c(OC)c(OC)c3)c2c2ccncc12 | 0.0478 µM | 0.163 µM | 0.0288 µM | 0.144 µM | 0.0294 µM | 10.1 µM | 0.0253 µM | 0.349 µM | 0.115 µM | 0.327 µM | 0.0211 µM | 0.101 µM | 0.0168 µM | 0.1 µM | 0.027 µM | 0.169 µM | 0.161 µM | 0.749 µM | 0.0467 µM | 2.19 µM
13 | COc1cc2c3c(c1O)C1(C=CC(=O)C=C1)CC3N(C)CC2 (centres undefined) |  | 48.4 µM |  | 32.6 µM |  | > 100 µM |  | 27.9 µM |  | 23 µM |  | 24.3 µM |  | 24 µM |  | 23.1 µM |  | > 100 µM |  | 19 µM
14 | CCCCCCC1N=C(N)N=C(N)N1c1ccc(Cl)cc1 (centres undefined) | 7.05 µM | 24.8 µM | 3.47 µM | 14.7 µM | 5.55 µM | > 100 µM | 8.62 µM | 24.9 µM | 3.36 µM | 17.5 µM | 2.58 µM | 17.6 µM | 2.62 µM | 22.1 µM | 8.55 µM | 37.6 µM | 14.4 µM | 60 µM | > 100 µM | > 100 µM
15 | C=C1CO[C@@H]2C[C@@H]1CC/C(C)=C/CC/C(C)=C/CC[C@@]2(C)O | 35.8 µM | > 76.2 µM | 18.5 µM | 34.5 µM | 15.1 µM | > 46.2 µM | 23.3 µM | 51.6 µM | 20.9 µM | 42.2 µM | 19.6 µM | 41.7 µM | 15.9 µM | 44.9 µM | 18.4 µM | 35.1 µM | 21.7 µM | 43.4 µM | 19.9 µM | 38 µM
16 | c1cnc2c(c1)Nc1cnncc1S2 |  | > 100 µM |  | > 100 µM |  | > 100 µM |  | > 100 µM |  | > 100 µM |  | > 100 µM |  | > 100 µM |  | > 100 µM |  | > 100 µM |  | > 100 µM
17 | C[C@@H]1CN2[C@H]3[C@@H]1CC[C@]31CCC(=O)O[C@]1(C)[C@@H]1CC[C@H]3CCC=C3[C@@H]12 | > 70 µM | > 70 µM | > 70 µM | > 70 µM | > 70 µM | > 70 µM | > 70 µM | > 70 µM | 48.2 µM | > 70 µM | > 70 µM | > 70 µM | 38.4 µM | > 70 µM | > 70 µM | > 70 µM | > 70 µM | > 70 µM | > 70 µM | > 70 µM
18 | NC(=O)NC(=O)C1CCCCC1C(=O)O (centres undefined) |  | > 100 µM |  | > 100 µM |  | > 100 µM |  | > 100 µM |  | > 100 µM |  | > 100 µM |  | > 100 µM |  | > 100 µM |  | > 100 µM |  | > 100 µM
